# Assay results published in patent US9757596B2, “Composition comprising at least 3 different diols” (AMBRIA DERMATOLOGY AB, priority 2004, dated 2017).
# System: M. globosa CBS 7966
# Test: Test for bacteriostatic effect (MIC) in agar medium, M. globosa
# Format: cell-based
# Settings: 10^7 cells/ml, DST agar, 37° C., analysed after 1 and 2 days; combinations: % of each diol
# Experimental: (§1) Staphylococcus aureus number 515×6352 and Candida albicans H 29 were obtained from the Collection in the Department of Microbiology, […] University Hospital, Gothenburg, Sweden. The isolates were maintained on blood agar at 37° C. M. sympodialis CBS 7222 and M. globosa CBS 7966 Test for bacteriostatic effect (MIC=minimal inhitory concentration). […] Plates were incubated at 37° C. and analysed after 1 and 2 days. Each experiment was repeated.
row,MIC M. globosa [%],Compound
1,3,"CC(O)CC(C)(C)O (stereo not drawn) [2-Methyl pentane-2,4-diol]"
2,10,CCO [Ethanol]
3,3,"OCCCCCO [Pentane-1,5-diol]"
4,10,"CC(O)CO (stereo not drawn) [Propane-1,2-diol]"

row,Compound,MIC M. globosa [%]
1,"CC(O)CCO (stereo not drawn) [Butane-1,3-diol]",10

# System: Candida albicans H 29
# Test: Test for bacteriostatic effect (MIC) in agar medium, C. albicans
# Format: cell-based
# Settings: 10^6 cells/ml, DST agar, 37° C., analysed after 1 and 2 days; combinations: % of each diol
# Experimental: (§2) Staphylococcus aureus number 515×6352 and Candida albicans H 29 were obtained from the Collection in the Department of Microbiology, Sahigrenska University Hospital, Gothenburg, Sweden. The isolates were maintained on blood agar at 37° C. M. sympodialis CBS 7222 and M. globosa CBS 7966
# (§3) Test for bacteriostatic effect (MIC=minimal inhitory concentration).
# (§4) Each of the diols and their combination (1:1:1 volume/volume) was diluted directly with the test culture medium, Diagnostic Sensitivity test agar (DST) (Oxoid, UK) to obtain concentrations, in the test medium, of 2, 3, 4, 6, 9, and 12% volume percent of the respective diol and of 2, 3, and 4% of the respective diol in the combination.
# (§5) S. aureus cells were added to the agar medium in concentrations of 10^3 and 10^5 cells/ml while C. albicans cells were added in a concentration of 10^6 cells/ml and M. sympodialis and M. globosa in a concentration of 10^7 cells/ml. Plates were incubated at 37° C. and analysed after 1 and 2 days. Each experiment was repeated. […] The MIC's for propane-1,2-diol, pentane-1,5-diol, 2-methylpentane-2,4-diol and the combination of these 3 diols are shown in the table 1.
# Example 3 was performed as example 1.
row,MIC C. albicans 10^6 [%],Compound
1,4,"CC(O)CC(C)(C)O (stereo not drawn) [2-Methyl pentane-2,4-diol]"
2,8,CCO [Ethanol]
3,4,"OCCCCCO [Pentane-1,5-diol]"
4,9,"CC(O)CO (stereo not drawn) [Propane-1,2-diol]"

row,Compound,MIC C. albicans 10^6 [%]
1,"CC(O)CCO (stereo not drawn) [Butane-1,3-diol]",8

# System: M. sympodialis CBS 7222
# Test: Test for bacteriostatic effect (MIC) in agar medium, M. sympodialis
# Format: cell-based
# Settings: 10^7 cells/ml, DST agar, 37° C., analysed after 1 and 2 days; combinations: % of each diol
# Experimental: as §1
row,MIC M. sympodialis [%],Compound
1,3,"CC(O)CC(C)(C)O (stereo not drawn) [2-Methyl pentane-2,4-diol]"
2,10,CCO [Ethanol]
3,3,"OCCCCCO [Pentane-1,5-diol]"
4,10,"CC(O)CO (stereo not drawn) [Propane-1,2-diol]"

row,Compound,MIC M. sympodialis [%]
1,"CC(O)CCO (stereo not drawn) [Butane-1,3-diol]",10

# System: Staphylococcus aureus number 515×6352
# Test: Test for bacteriostatic effect (MIC) in agar medium, S. aureus
# Format: cell-based
# Settings: 10^3 cells/ml, DST agar, 37° C., analysed after 1 and 2 days; combinations: % of each diol
# Experimental: as §2, §3, §4
# as §5, with “1. […]” for “1.”
row,MIC S. aureaus 10^3 [%],Compound
1,12,"CC(O)CC(C)(C)O (stereo not drawn) [2-Methyl pentane-2,4-diol]"
2,>12,CCO [Ethanol]
3,12,"OCCCCCO [Pentane-1,5-diol]"
4,>12,"CC(O)CO (stereo not drawn) [Propane-1,2-diol]"

row,Compound,MIC S. aureaus 10^3 [%]
1,"CC(O)CCO (stereo not drawn) [Butane-1,3-diol]",>12

# Same assay, conditions: 10^5 cells/ml, DST agar, 37° C., analysed after 1 and 2 days; combinations: % of each diol
row,MIC S. aureaus 10^5 [%],Compound
1,12,"CC(O)CC(C)(C)O (stereo not drawn) [2-Methyl pentane-2,4-diol]"
2,>12,CCO [Ethanol]
3,12,"OCCCCCO [Pentane-1,5-diol]"
4,>12,"CC(O)CO (stereo not drawn) [Propane-1,2-diol]"

row,Compound,MIC S. aureaus 10^5 [%]
1,"CC(O)CCO (stereo not drawn) [Butane-1,3-diol]",>12

# Same assay, conditions: cell concentration not specified; combinations: % of each diol
row,Compound,concentration that completely inhibited the growth of S. aureus [%]
1,"CC(O)CC(C)(C)O (stereo not drawn) [2-Methyl pentane-2,4-diol]",12
2,"OCCCCCO [Pentane-1,5-diol]",12
